In brackets after ≈: the same amount, converted by molar mass.
Tests used:
Format in all cases: functional
[1] = test system: Mycobacterium tuberculosis; test: Antitubercular activity against rifampicin-resistant Mycobacterium tuberculosis H37Rv isolate 1 by two-fold serial dilution method
[2] = test system: Mycobacterium tuberculosis; test: Antitubercular activity against isoniazid-resistant Mycobacterium tuberculosis H37Rv isolate 1 by two-fold serial dilution method
[3] = test system: Mycobacterium tuberculosis; test: Antitubercular activity against fluoroquinolone-resistant Mycobacterium tuberculosis H37Rv isolate 1 by two-fold serial dilution method
[4] = test system: Mycobacterium tuberculosis; test: Antitubercular activity against isoniazid-resistant Mycobacterium tuberculosis H37Rv isolate 2 by two-fold serial dilution method
[5] = test system: Mycobacterium tuberculosis; test: Antitubercular activity against rifampicin-resistant Mycobacterium tuberculosis H37Rv isolate 2 by two-fold serial dilution method

SMILES | MIC [1] | MIC [2] | MIC [3] | MIC [4] | MIC [5]
CNC[C@@H](Cc1ccccc1)N1CCN(CCC23CC4CC(CC(C4)C2)C3)[C@H](C(C)C)C1 | 14 µM (≈ 6.13 µg/mL) | 1.8 µM (≈ 0.788 µg/mL) | 14 µM (≈ 6.13 µg/mL) | – | –
CNC[C@@H](Cc1ccccc1)N1CCN(CCC(c2ccccc2)c2ccccc2)CC1 | 172 µM (≈ 73.6 µg/mL) | 74 µM (≈ 31.6 µg/mL) | 70 µM (≈ 29.9 µg/mL) | 27 µM (≈ 11.5 µg/mL) | 71 µM (≈ 30.4 µg/mL)
CNC[C@@H](Cc1ccccc1)N1CCN(CCC23CC4CC(CC(C4)C2)C3)CC1 | 39 µM (≈ 15.4 µg/mL) | 57 µM (≈ 22.6 µg/mL) | 38 µM (≈ 15 µg/mL) | 68 µM (≈ 26.9 µg/mL) | 83 µM (≈ 32.8 µg/mL)
CCC(C)[C@@H]1CN([C@@H](CNC)Cc2ccccc2)CCN1CCC12CC3CC(CC(C3)C1)C2 (stereo partly drawn) | 37 µM (≈ 16.7 µg/mL) | 38 µM (≈ 17.2 µg/mL) | 28 µM (≈ 12.6 µg/mL) | 41 µM (≈ 18.5 µg/mL) | 48 µM (≈ 21.7 µg/mL)

— ChEMBL document CHEMBL3792319, “Synthesis and antitubercular activity of 1,2,4-trisubstitued piperazines” (Bioorg Med Chem Lett, 2016)
